Assay results published in patent publication US9775844B2, “Heterocyclic compounds and uses thereof” (Infinity Pharmaceuticals, Inc., priority 2014, dated 2017).

What was measured:
PI3K δ = PI3K δ (Homo sapiens (Human), UniProt O00329); assay: PI3-Kinase Promega ADP-Glo Max assay; format: biochemical
PI3K α = PI3K α (Homo sapiens (Human), UniProt P42336); assay: PI3-Kinase Promega ADP-Glo Max assay; format: biochemical
Procedure: Promega ADP-Glo Max assay kit (Cat. No. V7002) was utilized to determine IC50 values for α, β, δ and γ isoforms of human Class I PI3 kinases (Millipore). […] Reactions were incubated at room temperature for 2 hours followed by addition of 25 uL of stop solution. After a 40-minute incubation at room temperature, 50 uL of Promega detection mix was added followed by incubation for 1 hour at room temperature. Plates were then read on Envision plate reader in lunimescence mode. Data was converted to % inhibition using the following equation below:
[formula] where S is the sample luminescence, Pos is a positive control without added PI3K, Neg is the negative control without added compound. Data was then plotted as % inhibition vs compound concentration.

PI3K-δ in RAJI cells = PI3K-δ in RAJI cells (Homo sapiens (Human), UniProt O00329); assay: RAJI p110 δ assay (PI3K-δ selective cellular assay, phospho-AKT); format: cell-based; conditions: phospho-AKT; read-out: RAJI p110 δ assay IC50
PI3K β = PI3K β (Homo sapiens (Human), UniProt P42338); assay: PI3-Kinase Promega ADP-Glo Max assay; format: biochemical
PI3K γ = PI3K γ (Homo sapiens (Human), UniProt P48736); assay: PI3-Kinase Promega ADP-Glo Max assay; format: biochemical
[1] = biological target: PI3K-γ in RAW264.7 macrophages (Mus musculus (Mouse), UniProt Q9JHG7); assay: Raw264.7 p110 γ assay (PI3K-γ selective cellular assay, C5a-stimulated phospho-AKT); format: cell-based; conditions: for IC50: phospho-AKT, read-out: Raw264.7 p110 γ assay IC50
PI3K-γ in RAW264.7 macrophages, sequence (Q9JHG7 whole entry): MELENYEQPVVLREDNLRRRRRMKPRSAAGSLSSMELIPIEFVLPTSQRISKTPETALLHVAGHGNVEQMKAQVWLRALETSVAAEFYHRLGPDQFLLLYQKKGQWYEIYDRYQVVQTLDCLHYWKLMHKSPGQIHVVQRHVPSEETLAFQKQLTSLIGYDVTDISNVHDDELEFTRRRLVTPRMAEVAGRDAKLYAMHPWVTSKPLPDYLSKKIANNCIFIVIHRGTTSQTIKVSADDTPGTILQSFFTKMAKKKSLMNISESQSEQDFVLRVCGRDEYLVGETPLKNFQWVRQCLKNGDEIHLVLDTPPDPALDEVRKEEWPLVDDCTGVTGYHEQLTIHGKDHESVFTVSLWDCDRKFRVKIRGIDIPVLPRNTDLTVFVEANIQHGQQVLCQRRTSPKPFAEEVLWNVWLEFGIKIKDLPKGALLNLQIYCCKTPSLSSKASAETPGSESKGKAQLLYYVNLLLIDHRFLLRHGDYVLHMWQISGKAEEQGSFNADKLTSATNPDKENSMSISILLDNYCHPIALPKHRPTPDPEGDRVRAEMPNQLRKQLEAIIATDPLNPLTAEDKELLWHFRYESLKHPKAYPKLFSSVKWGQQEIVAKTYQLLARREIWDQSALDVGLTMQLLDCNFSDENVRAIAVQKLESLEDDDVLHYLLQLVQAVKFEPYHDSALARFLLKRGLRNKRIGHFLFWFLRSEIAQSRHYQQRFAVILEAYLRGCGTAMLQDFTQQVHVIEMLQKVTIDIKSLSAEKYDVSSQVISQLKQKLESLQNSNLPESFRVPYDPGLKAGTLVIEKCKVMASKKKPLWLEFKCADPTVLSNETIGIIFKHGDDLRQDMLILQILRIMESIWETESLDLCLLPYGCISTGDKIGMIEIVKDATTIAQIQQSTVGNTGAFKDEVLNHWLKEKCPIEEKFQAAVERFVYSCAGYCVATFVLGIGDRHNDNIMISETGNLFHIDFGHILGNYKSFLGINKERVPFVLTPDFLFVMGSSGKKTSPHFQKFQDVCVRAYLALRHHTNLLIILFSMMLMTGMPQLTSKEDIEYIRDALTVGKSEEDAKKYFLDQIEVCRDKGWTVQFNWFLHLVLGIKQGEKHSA
Source text: Briefly, serum-starved RAW264.7 cells are stimulated with a known GPCR agonist C5a. […] Cells can be treated with test compounds prior to, simultaneously with, or subsequent to the stimulation by C5a. RAW 264.7 cells respond to the complement component fragment C5a through activation of the C5a receptor, and the C5a receptor activates macrophages and induces cell migration.

PI3K δ, sequence (O00329 whole entry): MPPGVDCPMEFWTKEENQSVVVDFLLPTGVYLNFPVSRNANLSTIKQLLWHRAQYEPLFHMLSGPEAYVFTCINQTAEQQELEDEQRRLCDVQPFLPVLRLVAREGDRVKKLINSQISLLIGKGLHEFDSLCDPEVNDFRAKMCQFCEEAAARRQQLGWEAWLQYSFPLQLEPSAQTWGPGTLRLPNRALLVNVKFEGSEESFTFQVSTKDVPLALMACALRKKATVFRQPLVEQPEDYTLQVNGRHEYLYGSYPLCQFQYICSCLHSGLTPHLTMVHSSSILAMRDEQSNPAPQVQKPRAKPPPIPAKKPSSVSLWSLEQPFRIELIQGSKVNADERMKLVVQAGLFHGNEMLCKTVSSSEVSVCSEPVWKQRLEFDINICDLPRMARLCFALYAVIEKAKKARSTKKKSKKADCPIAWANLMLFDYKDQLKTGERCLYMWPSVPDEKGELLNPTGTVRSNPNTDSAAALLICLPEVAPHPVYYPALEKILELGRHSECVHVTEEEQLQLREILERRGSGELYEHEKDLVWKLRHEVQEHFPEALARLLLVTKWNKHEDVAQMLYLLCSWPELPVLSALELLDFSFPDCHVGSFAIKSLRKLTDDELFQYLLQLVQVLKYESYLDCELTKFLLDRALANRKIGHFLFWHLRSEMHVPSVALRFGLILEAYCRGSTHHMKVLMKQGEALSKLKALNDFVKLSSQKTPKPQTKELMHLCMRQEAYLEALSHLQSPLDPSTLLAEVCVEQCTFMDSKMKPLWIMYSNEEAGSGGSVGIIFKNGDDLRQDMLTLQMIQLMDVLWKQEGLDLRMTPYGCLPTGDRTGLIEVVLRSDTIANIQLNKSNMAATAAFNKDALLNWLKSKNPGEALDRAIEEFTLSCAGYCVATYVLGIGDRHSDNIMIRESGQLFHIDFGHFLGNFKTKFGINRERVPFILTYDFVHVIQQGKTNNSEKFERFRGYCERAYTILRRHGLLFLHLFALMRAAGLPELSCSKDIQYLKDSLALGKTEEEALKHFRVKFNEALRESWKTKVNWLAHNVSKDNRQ
PI3K δ, sequence (P27986 whole entry partner): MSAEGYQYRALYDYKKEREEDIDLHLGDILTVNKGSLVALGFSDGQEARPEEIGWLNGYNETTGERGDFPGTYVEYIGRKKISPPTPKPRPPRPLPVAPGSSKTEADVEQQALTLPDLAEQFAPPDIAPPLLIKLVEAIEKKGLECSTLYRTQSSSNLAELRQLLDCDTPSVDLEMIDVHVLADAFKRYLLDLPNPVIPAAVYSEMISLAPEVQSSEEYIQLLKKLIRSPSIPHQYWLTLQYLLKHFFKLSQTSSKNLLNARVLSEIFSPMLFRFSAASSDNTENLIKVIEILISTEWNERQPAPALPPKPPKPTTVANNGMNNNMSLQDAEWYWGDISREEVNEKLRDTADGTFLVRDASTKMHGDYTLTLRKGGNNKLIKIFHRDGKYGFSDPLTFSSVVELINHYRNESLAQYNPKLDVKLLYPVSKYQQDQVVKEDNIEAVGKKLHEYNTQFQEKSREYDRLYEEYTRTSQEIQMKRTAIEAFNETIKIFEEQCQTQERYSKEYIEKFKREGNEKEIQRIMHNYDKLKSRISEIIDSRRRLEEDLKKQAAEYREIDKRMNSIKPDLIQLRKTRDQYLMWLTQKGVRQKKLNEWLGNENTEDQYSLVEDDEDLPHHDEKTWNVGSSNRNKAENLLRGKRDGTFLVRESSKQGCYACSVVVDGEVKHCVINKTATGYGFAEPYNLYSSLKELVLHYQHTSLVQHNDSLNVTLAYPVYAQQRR
PI3K-δ in RAJI cells, sequence (O00329 whole entry): as the sequence (O00329 whole entry) above
PI3K-δ in RAJI cells, sequence (P27986 whole entry partner): as the sequence (P27986 whole entry partner) above
PI3K α, sequence (P42336 whole entry): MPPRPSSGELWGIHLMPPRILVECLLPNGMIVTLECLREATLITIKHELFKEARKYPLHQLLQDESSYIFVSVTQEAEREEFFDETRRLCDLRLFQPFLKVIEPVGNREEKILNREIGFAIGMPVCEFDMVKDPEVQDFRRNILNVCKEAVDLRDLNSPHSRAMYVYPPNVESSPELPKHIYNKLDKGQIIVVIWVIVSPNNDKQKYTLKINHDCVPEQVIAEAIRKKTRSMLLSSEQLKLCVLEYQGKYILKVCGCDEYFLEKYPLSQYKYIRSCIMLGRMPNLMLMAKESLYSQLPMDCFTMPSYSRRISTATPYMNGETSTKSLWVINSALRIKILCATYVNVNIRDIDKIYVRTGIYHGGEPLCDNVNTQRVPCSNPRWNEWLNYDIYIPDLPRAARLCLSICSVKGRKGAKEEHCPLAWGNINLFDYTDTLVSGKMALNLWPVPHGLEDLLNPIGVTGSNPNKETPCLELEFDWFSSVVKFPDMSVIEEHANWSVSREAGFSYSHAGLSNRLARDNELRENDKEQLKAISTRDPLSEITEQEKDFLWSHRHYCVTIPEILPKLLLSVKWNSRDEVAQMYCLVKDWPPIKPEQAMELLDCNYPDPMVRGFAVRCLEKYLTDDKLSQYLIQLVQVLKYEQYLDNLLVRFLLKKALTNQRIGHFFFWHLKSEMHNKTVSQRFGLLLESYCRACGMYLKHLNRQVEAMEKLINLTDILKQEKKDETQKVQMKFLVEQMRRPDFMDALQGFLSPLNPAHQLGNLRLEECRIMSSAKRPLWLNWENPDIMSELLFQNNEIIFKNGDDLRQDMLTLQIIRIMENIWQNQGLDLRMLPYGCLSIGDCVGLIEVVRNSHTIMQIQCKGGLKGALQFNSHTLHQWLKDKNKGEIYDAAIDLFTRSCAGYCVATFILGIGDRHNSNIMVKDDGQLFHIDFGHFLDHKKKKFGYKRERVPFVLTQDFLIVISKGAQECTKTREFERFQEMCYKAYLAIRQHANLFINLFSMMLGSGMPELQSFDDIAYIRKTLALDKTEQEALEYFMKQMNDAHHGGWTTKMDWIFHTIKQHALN
PI3K α, sequence (P27986 whole entry partner): as the sequence (P27986 whole entry partner) above

SMILES | IC50 (PI3K δ) | IC50 (PI3K α) | IC50 (PI3K-δ in RAJI cells) | IC50 (PI3K β) | IC50 (PI3K γ) | PI3K δ/PI3K γ IC50 (selectivity) (PI3K γ) | RAJIδ/Raw264.7 γ IC50 (selectivity) [1] | IC50 [1]
CC(C)C#Cc1cccc2cc([C@H](C)NC(=O)c3c(N)nn4cccnc34)n(-c3ccccc3)c(=O)c12 [Compound 2] | 5000 to 10000 nM | 5000 to 10000 nM | 500 to 1000 nM | 5000 to 10000 nM | 500 to 1000 nM | X (X = 10 to <50) | Y (Y = 50 to <850) | 1 to 50 nM
C[C@H](NC(=O)c1c(N)nn2cccnc12)c1cc2cccc(C#CC(C)(C)C)c2c(=O)n1-c1ccccc1 [Compound 3] | 5000 to 10000 nM | 5000 to 10000 nM | 1000 to 10000 nM | 5000 to 10000 nM | 1000 to 5000 nM | W (W = >1 to <10) | X (X = 10 to <50) | 50 to 100 nM
C[C@H](NC(=O)c1c(N)nn2cccnc12)c1cc2cccc(C#Cc3ccccc3)c2c(=O)n1-c1ccccc1 [Compound 5] | 1 to 500 nM | 5000 to 10000 nM | 1 to 100 nM | 5000 to 10000 nM | 1000 to 5000 nM | V (V = 0.1 to 1) | W (W = >1 to <10) | 1 to 50 nM
COc1ccc(C#Cc2cccc3cc([C@H](C)NC(=O)c4c(N)nn5cccnc45)n(-c4ccccc4)c(=O)c23)cn1 [Compound 6] | 5000 to 10000 nM | 5000 to 10000 nM | 500 to 1000 nM | 5000 to 10000 nM | 100 to 500 nM | Y (Y = 50 to <850) | X (X = 10 to <50) | 1 to 50 nM
C[C@H](NC(=O)c1c(N)nn2cccnc12)c1cc2cccc(C#Cc3cncn3C)c2c(=O)n1-c1ccccc1 [Compound 7] | 5000 to 10000 nM | 5000 to 10000 nM | 500 to 1000 nM | 5000 to 10000 nM | 100 to 500 nM | Y (Y = 50 to <850) | Y (Y = 50 to <850) | 1 to 50 nM
C[C@H](NC(=O)c1c(N)nn2cccnc12)c1cc2cccc(C#CC(C)(C)N)c2c(=O)n1-c1ccccc1 [Compound 8] | 5000 to 10000 nM | 5000 to 10000 nM | 1000 to 10000 nM | 5000 to 10000 nM | 500 to 1000 nM | X (X = 10 to <50) | W (W = >1 to <10) | 100 to 10000 nM
C[C@H](NC(=O)c1c(N)nn2cccnc12)c1cc2cccc(C#CC3CC3)c2c(=O)n1-c1ccccc1 [Compound 9] | 1000 to 5000 nM | 1000 to 5000 nM | 100 to 500 nM | 1000 to 5000 nM | 100 to 500 nM | X (X = 10 to <50) | Y (Y = 50 to <850) | 1 to 50 nM
C[C@H](NC(=O)c1c(N)nn2cccnc12)c1cc2cccc(C#CCN3CCOCC3)c2c(=O)n1-c1ccccc1 [Compound 10] | 5000 to 10000 nM | 5000 to 10000 nM | 1000 to 10000 nM | 5000 to 10000 nM | 100 to 500 nM | X (X = 10 to <50) | X (X = 10 to <50) | 1 to 50 nM
C[C@H](NC(=O)c1c(N)nn2cccnc12)c1cc2cccc(C#CC(C)(C)O)c2c(=O)n1-c1ccccc1 [Compound 11] | 5000 to 10000 nM | 5000 to 10000 nM | 1000 to 10000 nM | 5000 to 10000 nM | 100 to 500 nM | X (X = 10 to <50) | X (X = 10 to <50) | 50 to 100 nM
COCC#Cc1cccc2cc([C@H](C)NC(=O)c3c(N)nn4cccnc34)n(-c3ccccc3)c(=O)c12 [Compound 12] | 1000 to 5000 nM | 5000 to 10000 nM | 100 to 500 nM | 1000 to 5000 nM | 1 to 100 nM | X (X = 10 to <50) | X (X = 10 to <50) | 1 to 50 nM
C[C@H](NC(=O)c1c(N)nn2cccnc12)c1cc2cccc(C#CCO)c2c(=O)n1-c1ccccc1 [Compound 13] | 500 to 1000 nM | 5000 to 10000 nM | 1 to 100 nM | 1000 to 5000 nM | 1 to 100 nM | X (X = 10 to <50) | W (W = >1 to <10) | 1 to 50 nM
C[C@H](NC(=O)c1c(N)nn2cccnc12)c1cc2cccc(C#CCN3CCCC3=O)c2c(=O)n1-c1ccccc1 [Compound 14] | 1 to 500 nM | 1000 to 5000 nM | 1 to 100 nM | 1000 to 5000 nM | 1 to 100 nM | X (X = 10 to <50) | W (W = >1 to <10) | 1 to 50 nM
C[C@H](NC(=O)c1c(N)nn2cccnc12)c1cc2cccc(C#C[C@@H](C)O)c2c(=O)n1-c1ccccc1 [Compound 15] | 500 to 1000 nM | 5000 to 10000 nM | 100 to 500 nM | 5000 to 10000 nM | 1 to 100 nM | X (X = 10 to <50) | W (W = >1 to <10) | 1 to 50 nM
C[C@H](O)C#Cc1cccc2cc([C@H](C)NC(=O)c3c(N)nn4cccnc34)n(-c3ccccc3)c(=O)c12 [Compound 16] | 1000 to 5000 nM | 5000 to 10000 nM | 100 to 500 nM | 1000 to 5000 nM | 1 to 100 nM | Y (Y = 50 to <850) | X (X = 10 to <50) | 1 to 50 nM
C[C@H](NC(=O)c1c(N)nn2cccnc12)c1cc2cccc(C#Cc3cccnc3)c2c(=O)n1-c1ccccc1 [Compound 17] | 5000 to 10000 nM | 5000 to 10000 nM | 100 to 500 nM | 5000 to 10000 nM | 100 to 500 nM | Y (Y = 50 to <850) | Y (Y = 50 to <850) | 1 to 50 nM
COc1ncc(C#Cc2cccc3cc([C@H](C)NC(=O)c4c(N)nn5cccnc45)n(-c4ccccc4)c(=O)c23)cn1 [Compound 18] | 5000 to 10000 nM | 5000 to 10000 nM | 100 to 500 nM | 5000 to 10000 nM | 100 to 500 nM | Y (Y = 50 to <850) | X (X = 10 to <50) | 1 to 50 nM
Cc1nn(C)cc1C#Cc1cccc2cc([C@H](C)NC(=O)c3c(N)nn4cccnc34)n(-c3ccccc3)c(=O)c12 [Compound 19] | 5000 to 10000 nM | 5000 to 10000 nM | 500 to 1000 nM | 5000 to 10000 nM | 100 to 500 nM | Y (Y = 50 to <850) | Y (Y = 50 to <850) | 1 to 50 nM
C[C@H](NC(=O)c1c(N)nn2cccnc12)c1cc2cccc(C#Cc3ccc(=O)n(C)c3)c2c(=O)n1-c1ccccc1 [Compound 20] | 1000 to 5000 nM | 5000 to 10000 nM | 100 to 500 nM | 5000 to 10000 nM | 1 to 100 nM | X (X = 10 to <50) | X (X = 10 to <50) | 1 to 50 nM
COC(C)C#Cc1cccc2cc([C@H](C)NC(=O)c3c(N)nn4cccnc34)n(-c3ccccc3)c(=O)c12 (stereo partly shown) [Compound 22] | 5000 to 10000 nM | 5000 to 10000 nM | 1000 to 10000 nM | 5000 to 10000 nM | 100 to 500 nM | X (X = 10 to <50) | X (X = 10 to <50) | 1 to 50 nM
C[C@H](NC(=O)c1c(N)nn2cccnc12)c1cc2cccc(C#Cc3cncn3C)c2c(=O)n1C1CC1 [Compound 23] | 5000 to 10000 nM | 1000 to 5000 nM | 100 to 500 nM | 1000 to 5000 nM | 1000 to 5000 nM | W (W = >1 to <10) | W (W = >1 to <10) | 1 to 50 nM
